{
  "source": "patent US20230233555A1",
  "about": "(AbbVie Inc., priority 2022, published 2023)",
  "key": {"[1]": {"details": "human, in vivo"}, "pregnant rats": {"system": "pregnant rats", "assay": "Oral embryo-fetal development studies in rats"}, "[2]": {"assay": "Population pharmacokinetic analyses", "assay_type": "in vivo, human", "procedure": "(§1) Renal clearance indicates some involvement of renal transporters in the excretion. Renal secretion is however not estimated to contribute to more than 25% of the elimination. […] As used herein, reference to “severe renal impairment” means a creatinine clearance of less than 30 mL/min.\nThe effect of different intrinsic factors has been evaluated in dedicated PK studies in renal and hepatic impairment and in Asian subjects, and by population pharmacokinetic analysis from the phase 2/3 studies. […] There are limited data in patients aged 75 years and older and there is no pharmacokinetic data in children and adolescents."}, "Sprague-Dawley rats": {"system": "Sprague-Dawley rats", "assay": "Carcinogenicity study in Sprague-Dawley rats", "assay_type": "in vivo, rat", "details": "for Exposure multiple at top dose without tumorigenicity: AUC basis"}, "pregnant female rats": {"system": "pregnant female rats", "assay": "Oral pre- and post-natal development study in rats", "assay_type": "in vivo", "details": "GD 6 through lactation day 20, AUC basis, 10 mg/kg/day"}, "[3]": {"assay": "Plasma protein binding and blood to plasma partitioning", "assay_type": "in vitro ADME", "details": "human, read-out: Bound to plasma proteins (converted)"}, "QTc interval": {"system": "QTc interval", "assay": "Cardiac electrophysiology (QTc)", "assay_type": "in vivo, human"}, "male and female rats": {"system": "male and female rats", "assay": "Fertility study in rats", "assay_type": "in vivo, rat"}, "[4]": {"assay": "Renal impairment pharmacokinetic study (Study M13-551)", "assay_type": "in vivo, human", "procedure": "as §1\nThis may increase the risk of adverse reactions; therefore, dosage modification in patients with severe renal impairment is recommended."}, "[5]": {"assay": "Model-estimated and predicted upadacitinib Cmax and AUCss in UC patients with co-administration of strong CYP3A4 inhibitors", "parameters": "species or system human", "details": "for Predicted Median Cmax in UC Patients with Strong CYP3A4 inhibitors based on results from M13-401: model-estimated value multiplied by 1.7; for Predicted AUCss in UC Patients with Strong CYP3A4 inhibitors based on results from M13-401, Median: model-estimated value multiplied by 1.75", "source_text": "The data from Study M13-401 are provided in Table 38 and Table 39, which show the expected increase in Cmax and AUCss, respectively, in patients with UC across all dose levels with co-administration of CYP3A4 inhibitors."}, "[6]": {"system": "CYP1A2, CYP2B6, CYP2C8, CYP2C9, CYP2C19, CYP2D6, CYP3A4", "assay": "In vitro CYP inhibition", "assay_type": "in vitro ADME", "details": "clinically relevant concentrations"}, "[7]": {"system": "human peripheral blood lymphocytes", "assay": "In vitro chromosome aberration assay", "assay_type": "cell-based"}, "[8]": {"assay": "Human radiolabeled [14C]-upadacitinib study (metabolism and excretion)", "assay_type": "in vivo"}},
  "note": "Entries after “also recorded” stand apart in the source; their conditions may differ.",
  "data": [
    {"smiles": "CC[C@@H]1CN(C(=O)NCC(F)(F)F)C[C@@H]1c1cnc2cnc3[nH]ccc3n12", "note": "[upadacitinib, (3S,4R)-3-Ethyl-4-(3H-imidazo[1,2-a]pyrrolo[2,3-e]pyrazin-8-yl)-N-(2,2,2-trifluoroethyl)pyrrolidine-1-carboxamide hydrate (2:1)]", "values": [
      {"measurement": "AUCinf increase with high-fat/high-calorie meal", "setting": "[1]", "result": 29, "unit": "%"},
      {"measurement": "Accumulation after multiple once-daily administrations", "setting": "[1]", "result": "minimal accumulation"},
      {"measurement": "Cmax increase with high-fat/high-calorie meal", "setting": "[1]", "result": 39, "unit": "%"},
      {"measurement": "Contribution of renal secretion to elimination", "setting": "[1]", "result": "≤ 25", "unit": "%"},
      {"measurement": "Dose proportionality of plasma exposures", "setting": "[1]", "result": "proportional to dose"},
      {"measurement": "Time to steady-state plasma concentrations", "setting": "[1]", "result": "≤ 4", "unit": "days"},
      {"measurement": "Exposure multiple with additional skeletal malformations and decreased fetal body weights, no maternal toxicity", "setting": "pregnant rats; AUC basis, 75 mg/kg/day", "result": "approximately 48 times the MRHD of 30 mg"},
      {"measurement": "Exposure multiple with teratogenicity (misshapen humerus, bent scapula)", "setting": "pregnant rats; GD 6 to 17, AUC basis, 5 mg/kg/day and higher", "result": "≥ 1.0 times the MRHD of 30 mg"},
      {"measurement": "Exposure multiple with developmental toxicity (skeletal malformations, decreased fetal body weights)", "setting": "pregnant rats; oral", "result": "≥ 2", "unit": "times the 15 mg dose"},
      {"measurement": "Exposure multiple with no developmental toxicity", "setting": "pregnant rats; oral, organogenesis", "result": "approximately 0.3 times the 15 mg dose"},
      {"measurement": "Plasma exposure, adolescent / pediatric (12 years and older, at least 40 kg) vs adult subjects", "setting": "[2]; atopic dermatitis studies", "result": "similar; also recorded: No meaningful difference"},
      {"measurement": "Age as covariate on CL/F and Vc/F", "setting": "[2]; continuous and discrete (adolescents ≥40 kg vs adults)", "result": "not found to be statistically significant"},
      {"measurement": "Effect of pH modifying medications (antacids, proton pump inhibitors) on plasma exposures", "setting": "[2]; in vitro assessments and population PK analyses", "result": "not expected to affect"},
      {"measurement": "Effect of body weight, gender, race, ethnicity, age on upadacitinib pharmacokinetics / exposure", "setting": "[2]; in vivo", "result": "no relevant effects; also recorded: did not have a clinically meaningful effect"},
      {"measurement": "Pharmacokinetics in geriatric patients (>65 years) vs younger adults", "setting": "[2]; in vivo", "result": "No clinically meaningful differences"},
      {"measurement": "Effect of CYP2D6 metabolic phenotype (extensive vs poor metabolizers) on upadacitinib CL/F, pharmacokinetics", "setting": "[2]; population PK analysis", "result": "comparability; also recorded: no effect"},
      {"measurement": "Exposure multiple at top dose without tumorigenicity", "setting": "Sprague-Dawley rats; female rats, 20 mg/kg/day", "result": "~6.0 times the MRHD of 30 mg"},
      {"measurement": "Exposure multiple at top dose without tumorigenicity", "setting": "Sprague-Dawley rats; male rats, 15 mg/kg/day", "result": "approximately 2.4 times the MRHD of 30 mg"},
      {"measurement": "Tumorigenicity", "setting": "Sprague-Dawley rats; up to 101 weeks, oral up to 15 (male) or 20 (female) mg/kg/day", "result": "No evidence of tumorigenicity"},
      {"measurement": "Exposure multiple with no maternal or developmental toxicity", "setting": "pregnant female rats", "result": "approximately 1.6 times the MRHD of 30 mg"},
      {"measurement": "fraction unbound", "setting": "[3]", "result": 0.48},
      {"measurement": "Effect on QTc interval", "setting": "QTc interval; 2.5 times the mean exposure of the 45 mg once daily dose", "result": "no clinically relevant effect"},
      {"measurement": "Effect on QTc interval", "setting": "QTc interval; 6 times the mean maximum exposure of the 15 mg once daily dose", "result": "no clinically relevant effect"},
      {"measurement": "Exposure multiple with viable embryos unaffected", "setting": "male and female rats; 5 mg/kg/day, AUC basis", "result": "approximately 1.0 times the MRHD of 30 mg"},
      {"measurement": "Exposure multiple with adverse effect on maintenance of pregnancy", "setting": "male and female rats; 25 mg/kg/day, AUC basis", "result": "approximately 13 times the MRHD of 30 mg"},
      {"measurement": "Exposure multiple with adverse effect on maintenance of pregnancy", "setting": "male and female rats; 75 mg/kg/day, AUC basis", "result": "~48 times the MRHD of 30 mg"},
      {"measurement": "Exposure multiple without effect on fertility", "setting": "male and female rats; female rats, 75 mg/kg/day, AUC basis", "result": "~48 times the MRHD of 30 mg"},
      {"measurement": "Number of viable embryos", "setting": "male and female rats; females 5 mg/kg/day mated to males at the same dose", "result": "unaffected"},
      {"measurement": "Exposure multiple without effect on fertility", "setting": "male and female rats; male rats, 50 mg/kg/day, AUC basis", "result": "approximately 24 times the MRHD of 30 mg"},
      {"measurement": "Maintenance of pregnancy (post-implantation losses, viable embryos per litter)", "setting": "male and female rats; oral 25 and 75 mg/kg/day", "result": "adversely affected"},
      {"measurement": "Fertility", "setting": "male and female rats; oral up to 50 mg/kg/day males, 75 mg/kg/day females", "result": "no effect on fertility"},
      {"measurement": "Cmax, impaired vs normal renal function", "setting": "[4]; in vivo", "result": "similar"},
      {"measurement": "Contribution of the renal route to elimination", "setting": "[4]; in vivo", "result": "approximately 25%"},
      {"measurement": "AUCinf higher vs normal renal function", "setting": "[4]; mild renal impairment", "result": 18, "unit": "%"},
      {"measurement": "AUCinf higher vs normal renal function", "setting": "[4]; moderate renal impairment", "result": 33, "unit": "%"},
      {"measurement": "AUCinf higher vs normal renal function", "setting": "[4]; severe renal impairment", "result": 44, "unit": "%"},
      {"measurement": "Cmax higher vs normal renal function", "setting": "[4]; severe renal impairment, Study M13-551", "result": 14, "unit": "%"},
      {"measurement": "Predicted Median Cmax in UC Patients with Strong CYP3A4 inhibitors based on results from M13-401", "setting": "[5]; 7.5 mg treatment group", "result": 34.3, "unit": "ng/mL"},
      {"measurement": "Predicted AUCss in UC Patients with Strong CYP3A4 inhibitors based on results from M13-401, Median", "setting": "[5]; 7.5 mg treatment group", "result": 282, "unit": "ng·h/mL"},
      {"measurement": "Predicted Median Cmax in UC Patients with Strong CYP3A4 inhibitors based on results from M13-401", "setting": "[5]; 15 mg treatment group", "result": 70.2, "unit": "ng/mL"},
      {"measurement": "Predicted AUCss in UC Patients with Strong CYP3A4 inhibitors based on results from M13-401, Median", "setting": "[5]; 15 mg treatment group", "result": 599, "unit": "ng·h/mL"},
      {"measurement": "Predicted Median Cmax in UC Patients with Strong CYP3A4 inhibitors based on results from M13-401", "setting": "[5]; 30 mg treatment group", "result": 133, "unit": "ng/mL"},
      {"measurement": "Predicted AUCss in UC Patients with Strong CYP3A4 inhibitors based on results from M13-401, Median", "setting": "[5]; 30 mg treatment group", "result": 1143, "unit": "ng·h/mL"},
      {"measurement": "Predicted Median Cmax in UC Patients with Strong CYP3A4 inhibitors based on results from M13-401", "setting": "[5]; 45 mg treatment group", "result": 206, "unit": "ng/mL"},
      {"measurement": "Predicted AUCss in UC Patients with Strong CYP3A4 inhibitors based on results from M13-401, Median", "setting": "[5]; 45 mg treatment group", "result": 1740, "unit": "ng·h/mL"},
      {"measurement": "Inhibition (or induction) of CYP1A2, 2B6, 2C8, 2C9, 2C19, 2D6, 3A4", "setting": "[6]", "result": "does not inhibit or induce; also recorded: no in vivo relevant inhibition"},
      {"measurement": "Genotoxicity, chromosome aberration", "setting": "[7]", "result": "tested negatively"},
      {"measurement": "Unchanged upadacitinib share of total radioactivity in plasma", "setting": "[8]; human radiolabeled study", "result": 79, "unit": "%"},
      {"measurement": "Active metabolites", "setting": "[8]; in vivo", "result": "No active metabolites"}
    ]}
  ]
}
